In ChEMBL document CHEMBL5620353, “Novel antifungal triazoles with alkynyl-methoxyl side chains: Design, synthesis, and biological activity evaluation” (Eur J Med Chem, 2023):
≈ marks a conversion by molar mass, not a printed value.

How the values were obtained:
Type in all cases: functional
Pichia kudriavzevii = test: Antifungal activity against Candida krusei 4996 assessed as inhibition of fungal growth incubated for 48 hrs by microbroth dilution method
Candida parapsilosis = test: Antifungal activity against Candida parapsilosis 22019 assessed as inhibition of fungal growth incubated for 48 hrs by microbroth dilution method; settings: Lodderomyces parapsilosis
Nakaseomyces glabratus [1] = test: Potency index, ratio of fluconazole MIC to test compound MIC for antifungal activity against Candida glabrata 537 assessed as inhibition of fungal growth incubated for 48 hrs by microbroth dilution method
Candida albicans [2] = test: Antifungal activity against Candida albicans SC5314 assessed as inhibition of fungal growth incubated for 48 hrs by microbroth dilution method
Cryptococcus neoformans = test: Antifungal activity against Cryptococcus neoformans 32,609 assessed as inhibition of fungal growth incubated for 72 hrs by microbroth dilution method
Candida tropicalis = test: Antifungal activity against Candida tropicalis 8915 assessed as inhibition of fungal growth incubated for 48 hrs by microbroth dilution method
Aspergillus fumigatus = test: Antifungal activity against Aspergillus fumigatus 7544 assessed as inhibition of fungal growth incubated for 72 hrs by microbroth dilution method
Nakaseomyces glabratus [3] = test: Antifungal activity against Candida glabrata 537 assessed as inhibition of fungal growth incubated for 48 hrs by microbroth dilution method
Candida albicans [4] = test: Antifungal activity against Candida albicans 10231 assessed as inhibition of fungal growth incubated for 48 hrs by microbroth dilution method
[Candida] auris [5] = Antifungal activity against fluconazole-resistant Candida auris 918 assessed as inhibition of fungal growth incubated for 48 hrs by microbroth dilution method; settings: Candidozyma auris
[Candida] auris [6] = Antifungal activity against fluconazole-resistant Candida auris 919 assessed as inhibition of fungal growth incubated for 48 hrs by microbroth dilution method; settings: Candidozyma auris
Candida albicans [7] = test: Antifungal activity against fluconazole-resistant Candida albicans 904 assessed as inhibition of fungal growth incubated for 48 hrs by microbroth dilution method
Candida albicans [8] = test: Antifungal activity against fluconazole-resistant Candida albicans 901 assessed as inhibition of fungal growth incubated for 48 hrs by microbroth dilution method
[Candida] auris [9] = Antifungal activity against fluconazole-resistant Candida auris 891 assessed as inhibition of fungal growth incubated for 48 hrs by microbroth dilution method; settings: Candidozyma auris
Saccharomyces cerevisiae [10] = test: Antifungal activity against recombinant Saccharomyces cerevisiae Y2301 overexpressing ScErg11 Y140F assessed as inhibition of fungal growth incubated for 48 hrs by microbroth dilution method
Saccharomyces cerevisiae [11] = test: Antifungal activity against recombinant Saccharomyces cerevisiae Y2411 overexpressing ScErg11 assessed as inhibition of fungal growth incubated for 48 hrs by microbroth dilution method
Saccharomyces cerevisiae [12] = test: Antifungal activity against recombinant Saccharomyces cerevisiae Y2513 overexpressing ScErg11 Y140H assessed as inhibition of fungal growth incubated for 48 hrs by microbroth dilution method
Saccharomyces cerevisiae [13] = test: Antifungal activity against recombinant Saccharomyces cerevisiae Y570 overexpressing CaCdr1 assessed as inhibition of fungal growth incubated for 48 hrs by microbroth dilution method
Saccharomyces cerevisiae [14] = test: Antifungal activity against recombinant Saccharomyces cerevisiae Y2716 overexpressing CpErg11 Y132F CpCpr assessed as inhibition of fungal growth incubated for 48 hrs by microbroth dilution method
Saccharomyces cerevisiae [15] = test: Antifungal activity against recombinant Saccharomyces cerevisiae Y525 overexpressing CaMdr1 assessed as inhibition of fungal growth incubated for 48 hrs by microbroth dilution method
Saccharomyces cerevisiae [16] = test: Antifungal activity against recombinant Saccharomyces cerevisiae Y2300 overexpressing ScErg11 assessed as inhibition of fungal growth incubated for 48 hrs by microbroth dilution method
Saccharomyces cerevisiae [17] = test: Antifungal activity against recombinant Saccharomyces cerevisiae Y2459 overexpressing CaErg11 CaCpr assessed as inhibition of fungal growth incubated for 48 hrs by microbroth dilution method
Saccharomyces cerevisiae [18] = test: Antifungal activity against recombinant Saccharomyces cerevisiae Y2462 overexpressing ScErg11 ScNcp1 assessed as inhibition of fungal growth incubated for 48 hrs by microbroth dilution method
Saccharomyces cerevisiae [19] = test: Antifungal activity against recombinant Saccharomyces cerevisiae Y2374 overexpressing CgErg11 assessed as inhibition of fungal growth incubated for 48 hrs by microbroth dilution method
Saccharomyces cerevisiae [20] = test: Antifungal activity against recombinant Saccharomyces cerevisiae Y2721 overexpressing CpErg11 CpCpr assessed as inhibition of fungal growth incubated for 48 hrs by microbroth dilution method

| SMILES | MIC (Pichia kudriavzevii) | MIC (Candida parapsilosis) | MIC (Candida albicans [2]) | MIC (Cryptococcus neoformans) | MIC (Candida tropicalis) | MIC (Aspergillus fumigatus) | MIC (Nakaseomyces glabratus [3]) | MIC (Candida albicans [4]) | Ratio (Nakaseomyces glabratus [1]) | other results |
| --- | --- | --- | --- | --- | --- | --- | --- | --- | --- | --- |
| C[C@@H](OCC#Cc1cc(Cl)ccc1Cl)[C@](O)(Cn1cncn1)c1ccc(F)cc1F | 32 µg/mL (≈ 70.8 µM) | 4 µg/mL (≈ 8.84 µM) | 0.25 µg/mL (≈ 0.553 µM) | 2 µg/mL (≈ 4.42 µM) | > 64 µg/mL | 16 µg/mL (≈ 35.4 µM) | ≤ 0.125 µg/mL | > 64 µg/mL | >=8 |  |
| C[C@@H](OCC#Cc1ccc(Cl)cc1)[C@](O)(Cn1cncn1)c1ccc(F)cc1F | 16 µg/mL (≈ 38.3 µM) | 0.5 µg/mL (≈ 1.2 µM) | ≤ 0.125 µg/mL | 1 µg/mL (≈ 2.39 µM) | ≤ 0.125 µg/mL | 4 µg/mL (≈ 9.57 µM) | ≤ 0.125 µg/mL | 16 µg/mL (≈ 38.3 µM) | >=8 | MIC ([Candida] auris [5]): 16 µg/mL (≈ 38.3 µM); MIC ([Candida] auris [6]): 8 µg/mL (≈ 19.1 µM); MIC (Candida albicans [7]): 32 µg/mL (≈ 76.6 µM); MIC (Candida albicans [8]): 32 µg/mL (≈ 76.6 µM); MIC ([Candida] auris [9]): 4 µg/mL (≈ 9.57 µM) |
| COc1ccc(C#CCO[C@H](C)[C@](O)(Cn2cncn2)c2ccc(F)cc2F)cc1 | 32 µg/mL (≈ 77.4 µM) | 4 µg/mL (≈ 9.68 µM) | ≤ 0.125 µg/mL | 2 µg/mL (≈ 4.84 µM) | 16 µg/mL (≈ 38.7 µM) | 4 µg/mL (≈ 9.68 µM) | 0.25 µg/mL (≈ 0.605 µM) | 16 µg/mL (≈ 38.7 µM) |  |  |
| C[C@@H](OCC#Cc1cccc(Cl)c1)[C@](O)(Cn1cncn1)c1ccc(F)cc1F | 32 µg/mL (≈ 76.6 µM) | 2 µg/mL (≈ 4.79 µM) | 0.5 µg/mL (≈ 1.2 µM) | 2 µg/mL (≈ 4.79 µM) | 32 µg/mL (≈ 76.6 µM) | 2 µg/mL (≈ 4.79 µM) | 0.5 µg/mL (≈ 1.2 µM) | 32 µg/mL (≈ 76.6 µM) |  |  |
| CC[C@@H]([C@H](C)O)n1ncn(-c2ccc(N3CCN(c4ccc(OC[C@@H]5CO[C@@](Cn6cncn6)(c6ccc(F)cc6F)C5)cc4)CC3)cc2)c1=O [POSACONAZOLE] |  |  |  |  |  |  |  |  |  | MIC (Saccharomyces cerevisiae [10]): 2 µg/mL; MIC (Saccharomyces cerevisiae [11]): 0.5 µg/mL; MIC (Saccharomyces cerevisiae [12]): 1 µg/mL; MIC (Saccharomyces cerevisiae [13]): 16 µg/mL; MIC (Saccharomyces cerevisiae [14]): 1 µg/mL; MIC (Saccharomyces cerevisiae [15]): 1 µg/mL; MIC (Saccharomyces cerevisiae [16]): 2 µg/mL; MIC (Saccharomyces cerevisiae [17]): 2 µg/mL; MIC (Saccharomyces cerevisiae [18]): 2 µg/mL; MIC (Saccharomyces cerevisiae [19]): 1 µg/mL; MIC (Saccharomyces cerevisiae [20]): 1 µg/mL |
| C[C@@H](OCC#Cc1cccc(Cl)c1Cl)[C@](O)(Cn1cncn1)c1ccc(F)cc1F | 64 µg/mL (≈ 142 µM) | 8 µg/mL (≈ 17.7 µM) | ≤ 0.125 µg/mL | 4 µg/mL (≈ 8.84 µM) | 32 µg/mL (≈ 70.8 µM) | 4 µg/mL (≈ 8.84 µM) | 1 µg/mL (≈ 2.21 µM) | 32 µg/mL (≈ 70.8 µM) |  |  |
| C[C@@H](OCC#Cc1ccc(C(F)(F)F)cc1)[C@](O)(Cn1cncn1)c1ccc(F)cc1F | 64 µg/mL (≈ 142 µM) | 16 µg/mL (≈ 35.4 µM) | 4 µg/mL (≈ 8.86 µM) | 8 µg/mL (≈ 17.7 µM) | 64 µg/mL (≈ 142 µM) | 16 µg/mL (≈ 35.4 µM) | 1 µg/mL (≈ 2.22 µM) | 32 µg/mL (≈ 70.9 µM) |  |  |

More lines, in order of falling MIC (Pichia kudriavzevii), values ahead:

| MIC (Pichia kudriavzevii) | MIC (Candida parapsilosis) | MIC (Candida albicans [2]) | MIC (Cryptococcus neoformans) | MIC (Candida tropicalis) | MIC (Aspergillus fumigatus) | MIC (Nakaseomyces glabratus [3]) | MIC (Candida albicans [4]) | SMILES | Ratio (Nakaseomyces glabratus [1]) | other results |
| --- | --- | --- | --- | --- | --- | --- | --- | --- | --- | --- |
| 16 µg/mL (≈ 41.6 µM) | 0.5 µg/mL (≈ 1.3 µM) | ≤ 0.125 µg/mL | 0.5 µg/mL (≈ 1.3 µM) | > 64 µg/mL | 8 µg/mL (≈ 20.8 µM) | ≤ 0.125 µg/mL | 32 µg/mL (≈ 83.2 µM) | C[C@@H](OCC#Cc1ccccn1)[C@](O)(Cn1cncn1)c1ccc(F)cc1F | >=8 |  |
| 16 µg/mL (≈ 35.4 µM) | 4 µg/mL (≈ 8.84 µM) | 0.25 µg/mL (≈ 0.553 µM) | ≤ 0.125 µg/mL | > 64 µg/mL | 4 µg/mL (≈ 8.84 µM) | 0.25 µg/mL (≈ 0.553 µM) | > 64 µg/mL | C[C@@H](OCC#Cc1c(Cl)cccc1Cl)[C@](O)(Cn1cncn1)c1ccc(F)cc1F |  |  |
| 16 µg/mL (≈ 40.3 µM) | 4 µg/mL (≈ 10.1 µM) | 0.25 µg/mL (≈ 0.629 µM) | 1 µg/mL (≈ 2.52 µM) | 32 µg/mL (≈ 80.5 µM) | 4 µg/mL (≈ 10.1 µM) | 0.25 µg/mL (≈ 0.629 µM) | 8 µg/mL (≈ 20.1 µM) | Cc1ccccc1C#CCO[C@H](C)[C@](O)(Cn1cncn1)c1ccc(F)cc1F |  |  |
| 8 µg/mL (≈ 20.9 µM) | 0.5 µg/mL (≈ 1.3 µM) | ≤ 0.125 µg/mL | 0.5 µg/mL (≈ 1.3 µM) | 32 µg/mL (≈ 83.5 µM) | 4 µg/mL (≈ 10.4 µM) | ≤ 0.125 µg/mL | 8 µg/mL (≈ 20.9 µM) | C[C@@H](OCC#Cc1ccccc1)[C@](O)(Cn1cncn1)c1ccc(F)cc1F | >=8 |  |
| 8 µg/mL (≈ 19.1 µM) | 2 µg/mL (≈ 4.77 µM) | ≤ 0.125 µg/mL | 1 µg/mL (≈ 2.38 µM) | 8 µg/mL (≈ 19.1 µM) | 2 µg/mL (≈ 4.77 µM) | ≤ 0.125 µg/mL | 8 µg/mL (≈ 19.1 µM) | C[C@@H](OCC#Cc1cc(F)ccc1F)[C@](O)(Cn1cncn1)c1ccc(F)cc1F | >=8 |  |
| 4 µg/mL (≈ 9.54 µM) | 0.5 µg/mL (≈ 1.19 µM) | ≤ 0.125 µg/mL | ≤ 0.125 µg/mL | 64 µg/mL (≈ 153 µM) | 1 µg/mL (≈ 2.38 µM) | 0.25 µg/mL (≈ 0.596 µM) | 16 µg/mL (≈ 38.2 µM) | C[C@@H](OCC#Cc1c(F)cccc1F)[C@](O)(Cn1cncn1)c1ccc(F)cc1F |  |  |
